{"source": "patent US20240246941A1", "about": "“SUBSTITUTED 4-(3-AMINOPROP-1-YL)AMINOQUINOLINE ANALOGS AS MODULATORS OF MELANOMA-ASSOCIATED ANTIGEN 11 UBIQUITIN LIGASE” (ST. JUDE CHILDREN'S RESEARCH HOSPITAL, INC., priority 2020, published 2024)", "key": {"[1]": {"test": "Solubility assay (μSOL Evolution, UV)", "format": "physicochemical", "settings": "18 h at RT in buffer", "procedure": "Solubility assays were carried out on a Biomek FX lab automation workstation (Beckman Coulter, Inc., Fullerton, CA) using SOL Evolution software (pION Inc., Woburn, MA). The detailed method is described as follows. 10 μl of 10 mM compound stock (in DMSO) was added to 190 μl 1-propanol to make a reference stock plate. 5 μl from this reference stock plate were mixed with 70 μl 1-propanol and 75 μl citrate phosphate-buffered saline (PBS; isotonic) to make the reference plate, and the UV spectrum (250-500 nm) of the reference plate was read. 6 μl of 10 mM test compound stock was added to 594 μl buffer in a 96-well storage plate and mixed. The storage plate was sealed and incubated at RT for 18 h. The suspension was then filtered through a 96-well filter plate (pION Inc., Woburn, MA). 75 μl of filtrate was mixed with 75 μl 1-propanol to make the sample plate, and the UV spectrum of the sample plate was read. Calculations were carried out with μSOL Evolution software based on the area under the curve (AUC) of the UV spectrum of the sample and reference plates. All compounds were tested in triplicate."}, "[2]": {"test": "High throughput Caco-2 permeability", "format": "in vitro ADME", "settings": "human, 10 μmol/l, 2 h, 37° C.", "procedure": "High throughput Caco-2 permeability was performed in the TranswellR 0.4 μm polycarbonate membrane 96-well system with modified methods. Caco-2 cells were maintained at 37° C. in a humidified incubator with an atmosphere of 5% CO2. The cells were cultured in 75 cm^2 flasks with Dulbecco's Modified Eagle's Medium (DMEM) containing 10% (v/v) FBS, 1% (v/v) non-essential amino acids (NEAA), 100 units/ml of penicillin, and 100 μg/ml of streptomycin. The Caco-2 cells were seeded onto inserts at a density of 2×10^4 cells/insert separately. The medium in the wells was exchanged each other day, and the trans epithelial electrical resistance (TEER) value was measured using an epithelial voltohm meter (Millipore, Billerica, Massachusetts). […] For transport experiments, each cultured monolayer on the 96-well plate was washed twice with a transport buffer (HBSS containing 25 mM HEPES, pH 7.4). The permeability assay was initiated by the addition of each compound solution (10 μmol/l) into inserts (apical side, A) or receivers (basolateral side, B). The Caco-2 cell monolayers were incubated for 2 h at 37° C. Fractions were collected from receivers (if apical to basal permeability) or inserts (if basal to apical permeability), and concentrations were assessed by UPLC/MS (Waters; Milford, MA). All compounds were tested in triplicates. The A→B (or B→A) apparent permeability coefficients (Papp) of each compound were calculated using the equation, Papp=dQ/dt×1/AC0, where dQ/dt equals the flux of a drug across the monolayer, A equals the total insert well surface area, and C0 is the initial concentration of substrate in the donor compartment. The efflux ratio was determined by dividing the Papp in the B-A direction by the Papp in the A-B direction."}, "[3]": {"biological_target": "MAGE-A11 binding to PCF11 in FLAG-MAGE-A11 HEK293FT cell lysates (Homo sapiens (Human), UniProt P43364)", "sequence (P43364 whole entry)": "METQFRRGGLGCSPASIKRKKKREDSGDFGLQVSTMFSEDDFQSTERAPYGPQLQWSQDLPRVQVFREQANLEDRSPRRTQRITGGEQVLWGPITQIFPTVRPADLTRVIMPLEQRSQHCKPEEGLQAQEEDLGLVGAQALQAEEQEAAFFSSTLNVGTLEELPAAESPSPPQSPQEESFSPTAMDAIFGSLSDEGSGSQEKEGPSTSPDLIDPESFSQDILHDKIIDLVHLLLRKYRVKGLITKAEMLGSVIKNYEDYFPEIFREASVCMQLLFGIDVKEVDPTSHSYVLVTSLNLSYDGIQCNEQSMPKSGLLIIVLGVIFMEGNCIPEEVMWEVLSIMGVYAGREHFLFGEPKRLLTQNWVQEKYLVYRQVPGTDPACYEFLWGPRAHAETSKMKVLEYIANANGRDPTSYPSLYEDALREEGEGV", "test": "anti-FLAG pull-down (co-IP) of MAGE-A11:PCF11 in cell lysates", "settings": "100 μM, 24 hours, immunoblot for endogenous PCF11, listed as SJ521054", "procedure": "Immunoprecipitation. HEK293FT cells were plated in 6 cm^2 plates and transfected 24 hours later with Effectene (QIAGEN) according to the manufacturer's protocol. After 48 hours, cells were washed and scraped in cold PBS, spun down and resuspended in lysis buffer (50 mM Tris pH 7.4, 150 mM NaCl, 1 mM DTT, 0.1% (v/v) Triton X-100, 10 mM N-Ethylmaleimide and 1× protease inhibitor cocktail (Sigma)). Cell lysates were incubated with appropriate antibodies overnight at 4° C. and then with protein A beads for 2 hours at 4° C. Beads were then washed with lysis buffer three times and eluted with 2×SDS sample buffer.\n(§1) Western Blotting and Antibodies. For western blotting, samples in SDS sample buffer were resolved on SDS-PAGE gels and then transferred to nitrocellulose membranes prior to blocking in TBST with 5% (w/v) milk powder or 3% (w/v) bovine serum albumin and probing with primary and secondary antibodies (GE Healthcare). Primary antibodies were: anti-Myc (Sigma, #C3956), anti-FLAG (Sigma, #F3165), anti-HUWE1 (Novus Biologicals, #NB 100-652), anti-PCF11 (Bethyl Laboratories, #A303-706A), anti-GAPDH (Cell Signaling Technology, #2118), anti-TRIM28 (Abcam, #ab22553), anti-AMPKa1 (Cell Signaling Technology, #2795) and anti-MMS19 (Proteintech, #16015-1-AP). Protein signal was visualized after addition of ECL detection reagent (GE Healthcare) according to manufacturer's instructions."}, "[4]": {"tested_on": "PCF11 protein levels in HEK293FT cells", "test": "PCF11 degradation by MAGE-A11, immunoblotting in HEK293FT cells", "format": "cell-based", "settings": "24 hours", "procedure": "Cell culture and stable cell lines. HEK293FT, HeLa and DAOY cells were grown in DMEM (Gibco) supplemented with 10% (v/v) FBS (Hyclone), 2 mM L-glutamine, 100 units/ml penicillin, 100 units/ml streptomycin, and […] amphotericin B (Invitrogen). HEK293FT and DAOY cells were transfected with either HA-FLAG-vector, FLAG-MAGE-A11 wild-type or SBC mutants using Effectene (QIAGEN) according to the manufacturer's protocol in 6 cm^2 plates. After 48 hours, cells were selected with 1 μg/ml puromycin (Sigma) over 2 weeks.\nas §1"}, "[5]": {"tested_on": "MAGE-A11-knockout DAOY cells or those reconstituted with MAGE-A11", "test": "Cell viability alamarBlue assay, DAOY cells", "format": "cell-based", "settings": "MAGE-A11 expressing DAOY cells versus MAGE-A11-negative cells, 24 hours, listed as SJ521054", "procedure": "Cell viability Assay. To assess cell viability after SJ521054 treatment, 1×10^4 cells/ml were treated with SJ521054 (0-40 μM) and incubated for 24 hours prior to changing the media and adding alamarBlue (Thermo Fisher Scientific) and incubating for 4 hours at 37° C. Plates were read by measuring the fluorescence with excitation wavelength at 540 nm and emission wavelength at 590 nm on an Enspire plate reader."}}, "note": "“Also recorded” adds a separate entry of the source. Where two headings read alike, the source gives them in different places."}
{"smiles": "FC(F)(F)c1ccc2c(NCCCNCc3ccc4[nH]ccc4c3)ccnc2c1", "note": "[SJ000521054-02, N^1-((1H-Indol-5-yl)methyl)-N^3-(7-(trifluoromethyl)quinolin-4-yl)propane-1,3-diamine]", "values": [{"measurement": "Solubility", "setting": "[1]", "value": 26.48, "unit": "µM"}, {"measurement": "Papp at 2 h, 10 μmol/l", "setting": "[2]; Caco-2, pH 7.4, apical to basolateral, read-out: Caco-2 permeability, A/B", "value": 11.5, "unit": "×10⁻⁶ cm/s"}, {"measurement": "Papp at 2 h, 10 μmol/l", "setting": "[2]; Caco-2, pH 7.4, basolateral to apical, read-out: Caco-2 permeability, B/A", "value": 14.2, "unit": "×10⁻⁶ cm/s"}, {"measurement": "MAGE-A11 binding to PCF11 in cell lysate (co-IP)", "setting": "[3]", "value": "inhibited MAGE-A11 binding to PCF11 in cell lysates"}, {"measurement": "PCF11 protein levels / PCF11 degradation by MAGE-A11", "setting": "[4]; MAGE-A11 expressing HEK293FT cells, listed as SJ521054", "value": "blocks PCF11 degradation by MAGE-A11; also recorded: stabilized PCF11 protein levels"}, {"measurement": "PCF11 protein levels", "setting": "[4]; vector control HEK293FT cells", "value": "no effect"}, {"measurement": "cell viability", "setting": "[5]", "value": "reduces viability of MAGE-A11 expressing DAOY cancer cells; also recorded: decreased the viability"}]}
